molecular target: T1, hERG channel (Homo sapiens, UniProt Q12809); test: hERG channel assay; format: cell-based; details: CHO cell line expressing hERG, whole cell recordings
T1 construct: host or cells: CHO (Chinese Hamster Ovary), stably transfected
Description: The most common mechanism for these adverse events is the inhibition of one or more cardiac potassium channels, in particular hERG. This current is important for cardiac myocyte repolarization and is a common target for drugs that prolong the QT interval. Test articles in this study were therefore characterized to determine their ability to inhibit the hERG channel. Ion channel activity was measured using a stably transfected Chinese Hamster Ovary (CHO) cell line expressing the hERG mRNA. The pharmacology of this cloned channel expressed in the CHO cell line is very similar to that observed in native tissue.
Cells: AVIVA's CHO cell line, which stably expresses hERG channels, was used for the study. Cells were cultured in DMEM/F12 containing 10% FBS, 1% penicillin/streptomycin and 500 μg/ml G418. Before testing, cells were harvested using Accumax (Innovative Cell Technologies).
Solutions: For electrophysiological recordings, the following solutions were used. External Solution: 2 mM CaCl2; 2 mM MgCl2; 4 mM KCl; 150 mM NaCl; 10 mM Glucose; 10 mM HEPES; 310-320 mOsm; pH 7.4 (adjusted with 1M NaOH). Internal Solution: 140 mM KCl; 10 mM MgCl2; 6 mM EGTA; 5 mM HEPESNa; […]; 300-320 mOsm; pH 7.25 (adjusted with 1M KOH).
Electrophysiology: Whole cell recordings were performed using PX 7000A (Axon Instruments) with VIVA's SealChip™ technology. Cells were voltage clamped at a holding potential of −80 mV. The hERG current was then activated by a depolarizing step to −50 mV for 300 ms. This first step at −50 mV was used as a baseline for measuring peak amplitude of the tail current. Next, a voltage step to +20 mV was applied for 5 s to activate the channels. Finally a step back to −50 mV for 5 seconds removed activation and the deactivating tail current was recorded.
Compound Handling and Dilutions: All compounds were prepared from either 10 or 30 mM DMSO stock solutions. Solutions were mixed by sonication for 20 min, followed by vigorous vortexing. Prior to testing, compounds were diluted to test concentrations in glass vials using External Solution. Dilutions were prepared no longer than 20 min prior to use. Equal amounts of DMSO (0.1%) were present in all final dilutions.
Electrophysiology Procedures: After achieving whole cell configuration, cells were monitored for 90 s to assess stability and then washed with External Solution for 66 s. The voltage protocol described above was then applied to the cells every 12 s throughout the procedure. Only stable cells with recording parameters above threshold (see Quality Control section) were allowed to enter the drug addition procedure. External solution containing 0.1% DMSO (vehicle) was applied to the cells to establish a baseline. After allowing the current to stabilize for 3 to 5 min, test articles were applied. Test article solutions were added to cells in 4 separate additions. Cells were kept in test solution until effect of the test article reached steady state, to a maximum of 12 min. Next, 1 μM cisapride (positive control) was added. Finally, washout with External Solution was performed until the recovery current reached a steady state.
Data Analysis: Data analysis was performed using DataXpress (Axon Instruments), Clampfit (Axon Instruments) and Origin (Originlab Corporation) software.

T1 sequence (Q12809 whole entry): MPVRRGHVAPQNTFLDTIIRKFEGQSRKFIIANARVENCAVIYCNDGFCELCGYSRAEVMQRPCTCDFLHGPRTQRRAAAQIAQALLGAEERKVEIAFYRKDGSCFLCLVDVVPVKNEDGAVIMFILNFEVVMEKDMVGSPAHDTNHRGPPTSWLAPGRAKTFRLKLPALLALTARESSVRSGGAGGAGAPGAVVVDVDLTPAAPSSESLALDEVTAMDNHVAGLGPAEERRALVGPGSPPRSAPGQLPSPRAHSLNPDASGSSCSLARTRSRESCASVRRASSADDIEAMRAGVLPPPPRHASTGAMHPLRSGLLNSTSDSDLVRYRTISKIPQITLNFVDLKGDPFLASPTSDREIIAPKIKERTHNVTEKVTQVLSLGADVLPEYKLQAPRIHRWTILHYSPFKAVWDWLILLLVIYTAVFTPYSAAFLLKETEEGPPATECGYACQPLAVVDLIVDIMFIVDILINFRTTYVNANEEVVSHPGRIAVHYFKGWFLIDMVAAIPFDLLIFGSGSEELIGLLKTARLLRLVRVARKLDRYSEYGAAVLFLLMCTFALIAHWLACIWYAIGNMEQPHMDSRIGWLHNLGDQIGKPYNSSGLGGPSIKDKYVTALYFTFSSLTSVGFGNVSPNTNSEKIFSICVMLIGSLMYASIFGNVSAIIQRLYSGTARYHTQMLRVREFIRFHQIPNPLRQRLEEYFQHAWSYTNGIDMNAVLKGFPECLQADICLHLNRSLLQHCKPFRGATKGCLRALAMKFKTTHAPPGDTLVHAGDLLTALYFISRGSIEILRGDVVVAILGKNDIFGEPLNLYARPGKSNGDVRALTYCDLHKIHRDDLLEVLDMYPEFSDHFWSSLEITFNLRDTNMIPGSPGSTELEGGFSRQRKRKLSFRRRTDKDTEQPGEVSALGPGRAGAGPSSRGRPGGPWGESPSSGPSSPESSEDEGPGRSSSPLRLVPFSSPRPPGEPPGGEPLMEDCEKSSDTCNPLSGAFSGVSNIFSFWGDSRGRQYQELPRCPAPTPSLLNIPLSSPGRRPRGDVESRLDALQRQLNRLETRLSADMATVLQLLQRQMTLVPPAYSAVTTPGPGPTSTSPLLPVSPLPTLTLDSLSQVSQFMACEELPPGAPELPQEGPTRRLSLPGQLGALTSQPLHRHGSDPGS

| SMILES | IC50 [µM] |
| --- | --- |
| Cn1nc(C(=O)NC2CCNCC2)c2ccc(N3CCCCCC3)nc21.O=C(O)C(F)(F)F.O=C(O)C(F)(F)F [compound 697] | > 10 |
| CCC(CC)Oc1ccc2c(C(=O)NC3CCNCC3)n[nH]c2n1 [compound 726] | > 10 |
| Clc1ccc(Cn2nc(COCCCN3CCCCC3)c3ccc(N4CCCCCC4)nc32)cc1 [compound 749] | 3.3 |
| CCC(CC)Oc1ccc2c(COCC3CCCNC3)nn(Cc3ccc(Cl)cc3)c2n1.O=C(O)C(F)(F)F (stereo not drawn) [compound 755] | > 10 |
| O=C(NC1CCNCC1)c1nn(C(=O)C2CCCCC2)c2nc(N3CCCCCC3)ccc12.O=C(O)C(F)(F)F.O=C(O)C(F)(F)F.O=C(O)C(F)(F)F [compound 989] | > 10 |
| Cn1nc(C(=O)NC2CCN(CCN3CCCCC3)CC2)c2ccc(N3CCCCCC3)nc21 [compound 1047] | 9.5 |
| Cn1nc(C(=O)NC2CCN(CC3CCCCC3)CC2)c2ccc(N3CCCCCCC3)nc21 [compound 1062] | > 10 |
| CCN1CCC(NC(=O)c2nn(C)c3nc(N4CCCCCC4)ccc23)CC1 [compound 1595] | 1.1 |
| Cn1nc(C(=O)NC2CCN(CCN3CCCC3)CC2)c2ccc(N3CCCCCC3)nc21 [compound 1597] | 9.1 |

From patent US20120232062A1, “AZAINDAZOLES TO TREAT FLAVIVIRIDAE VIRUS INFECTION” (EIGER BIOPHARMACEUTICALS, INC., priority 2009, published 2012)
